Measurements: patent US20080085889A1, “Amidomethyl-Substituted 1-(Carboxyalkyl) Cyclopentyl-Carbonylamino-Benzazepine-N-Acetic Acid Compounds, Process and Intermediate Products for Their Preparation and Pharmaceutical Compositions Containing Them” (SOLVAY PHARMACEUTICALS GmbH, priority 2003, published 2008)
Entries after “also recorded” stand apart in the source; their conditions may differ. Read-outs that look alike come from different tables or passages of the source. Marks after values point to notes of the source that are not given here.

Legend:
[1] = tested on: NEP (prepared from pig kidney cortex); test: Enzymatic breakdown of CNP and VIP by NEP and its inhibition, in vitro, HPLC; assay type: biochemical
Procedure: The inhibition of the enzymatic breakdown of CNP and VIP by the compounds used according to the invention was measured in an enzymatic in vitro assay according to the following protocol:
All test compounds were dissolved in DMSO at 10 mM and further diluted with assay buffer.
80 μl of assay buffer, 10 μl of enzyme working solution (NEP or hSEP) and 10 μl of peptide stock solution (VIP or CNP) were mixed in an Eppendorf vial and incubated for 120 min. at 37° C. The enzymatic reaction was subsequently terminated by heating to 95° C. for 5 min. After centrifugation (Heraeus Biofuge B, 3 min) the supernatant was subjected to HPLC.
70 μl of assay buffer, 10 μl of enzyme working solution (NEP or hSEP) and 10 μl of a test compound solution were mixed in an Eppendorf vial and preincubated at 37° C. for 15 minutes. Then, 10 μl of peptide stock solution (VIP or CNP) was added and the reaction mixture was incubated at 37° C. for 60 min. to allow enzymatic hydrolysis. […]
All peptides were detected by absorbance at 214 nm (UV spectroscopy). The percentage (=%) of hydrolysis was calculated on the basis of the peak area of the undegraded peptide for an enzyme containing sample Y in correlation to a sample containing the same concentration of peptide without enzyme (blank) by the following equation: % hydrolysis=100*(blank−Y) […]

[2] = tested on: TUNEL positive cells in heart, liver and kidney; test: Adriamycin toxicity: determination of anti-apoptotic activity (TUNEL staining); assay type: in vivo, Wistar rats; settings: for TUNEL positive cells, Heart / TUNEL positive cells, Kidney / TUNEL positive cells, Liver: ± SEM
Procedure: 2. Adriamycin Toxicity: Determination of Anti-Apoptotic Activity
Wistar rats, weighing 200-250 g, were anesthetized with chloral hydrate, 400 mg/kg, and Alzet osmotic minipumps (2 ML1), were implanted subcutaneously (=s.c.). The pumps had been filled with either vehicle or solution containing compounds of the invention at the appropriate concentration and primed prior to implantation. Animals subsequently received adriamycin at three equal daily doses of 5 mg/kg i.p. on days 1, 2 and 3. Rats were euthanized 5 days after the first injection of adriamycin and transcardially perfused with a solution containing 4% paraformaldehyde in phosphate buffer. The heart, liver and kidneys were subsequently removed and embedded in parafin.
TUNEL staining: For terminal deoxynucleotide transferase-mediated dUTP nick end-label (TUNEL) based histological analysis, organs were post-fixed for 5 days at 4° C. and paraffin-embedded. TUNEL staining was performed on 10 μm thick paraffin sections using the ApopTag Peroxidase kit (S 7100, Oncor Appligene, Heidelberg, Germany) according to the manufacturer's instructions. Briefly, after pretreatment with proteinase K and quenching of endogenous peroxidase, sections were incubated in equilibration buffer followed by working strength TdT enzyme (incorporating digoxigenin labeled dUTP nucleotides to free 3′-OH DNA termini), (1 hr, 37° C.). Sections were incubated in stop/wash buffer (30 min, 37° C.), then with anti-digoxigenin-peroxidase conjugate (30 min) followed by DAB substrate (Sigma, Deisenhofen, Germany) and lightly counterstained with methylgreen.
Wistar rats were administered adriamycin at the cumulative dose of 15 mg/kg i.p. The test substance of Example 4 was administered s.c. at the doses of 20, 50 or 100 mg/kg and day by means of Alzet osmotic minipumps over 5 days. Animals were euthanized and transcardially perfused 5 days after the first injection of adriamycin and the heart, kidney and liver were processed for TUNEL staining. Densities of TUNEL positive cells were determined as described in the methods. Results for each organ (heart, liver, kidney) were measured as mean densities of TUNEL positive cells ±SEM for the control groups and the different test groups (20, 50 or 100 mg/kg and day of test compound of Example 4) and listed in table 8 below.
Comparisons between groups were performed by means of Student's t test (**P<0.01; ***P<0.001 compared to vehicle treated rats).

[3] = adriamycin 15 mg/kg cumulative i.p. + 20 mg/kg and day s.c. minipump over 5 days
[4] = adriamycin 15 mg/kg cumulative i.p. + 50 mg/kg and day s.c. minipump over 5 days
[5] = adriamycin 15 mg/kg cumulative i.p. + 100 mg/kg and day s.c. minipump over 5 days

What does the source list for “{(3S)-3-[({1-[(2″rel1″)-2-ethoxycarbonyl)-4-(isopropylamino)-4-oxobutyl]cyclopentyl}-carbonyl)amino]-2-oxo-2,3,4,5-tetrahydro-1H-1-benzazepin-1-yl}acetic acid [Example 4]”?
IC50 ([1]; substrate CNP (32-53), read-out: inhibition of breakdown of CNP by NEP, IC50): 10.1 nM; IC50 ([1]; substrate VIP, read-out: inhibition of breakdown of VIP by NEP, IC50): 3.1 nM; protection against adriamycin toxicity (densities of TUNEL positive cells) ([2]; 20, 50 or 100 mg/kg and day s.c., heart, liver, kidney): significant protection against adriamycin toxicity in the heart, liver and kidney; also recorded: dose-dependently decreased the cytotoxic effect of adriamycin in all three organs; TUNEL positive cells, Heart [2, 3]: 4.350 ± 0.248*** cells/mm3 × 102; TUNEL positive cells, Kidney [2, 3]: 7.900 ± 0.306*** cells/mm3 × 102; TUNEL positive cells, Liver [2, 3]: 8.750 ± 0.301** cells/mm3 × 102; TUNEL positive cells, Heart [2, 4]: 3.700 ± 0.260*** cells/mm3 × 102; TUNEL positive cells, Kidney [2, 4]: 7.850 ± 0.587** cells/mm3 × 102; TUNEL positive cells, Liver [2, 4]: 8.250 ± 0.271*** cells/mm3 × 102; TUNEL positive cells, Heart [2, 5]: 3.550 ± 0.157*** cells/mm3 × 102; TUNEL positive cells, Kidney [2, 5]: 6.300 ± 0.260*** cells/mm3 × 102; TUNEL positive cells, Liver [2, 5]: 7.450 ± 0.329*** cells/mm3 × 102; most effective dose against adriamycin toxicity ([2]; of 20, 50 or 100 mg/kg and day s.c.): 100 mg/kg and day
